# Reference: the kinase profiling compilation of Christmann-Franck et al. (2016)
# Tests used:
# Test in all cases: KINOMEscan competition binding
# Settings in all cases: compound 1.0 µM
# [1] = target: DYRK1B (human) (UniProt Q9Y463)
# [2] = target: CDK17 (human) (UniProt Q00537)
# [3] = target: NUAK2 (human) (UniProt Q9H093)
# [4] = target: MTOR (human) (UniProt P42345)
# [5] = test system: KIT (human), P10721 [V559D]
# [6] = test system: BRAF (human), P15056 [V600E]
# [7] = target: CSNK2A1 (human) (UniProt P68400)
# [8] = target: AXL (human) (UniProt P30530)
# [9] = target: ACVR1 (human) (UniProt Q04771)
# [10] = target: MAP2K5 (human) (UniProt Q13163)
# [11] = target: STK32C (human) (UniProt Q86UX6)
# [12] = target: TYRO3 (human) (UniProt Q06418)
# [13] = target: SIK3 (human) (UniProt Q9Y2K2)
# [14] = target: MAP4K2 (human) (UniProt Q12851)
# [15] = test system: PIK3CA (human), P42336 [I800L]
# [16] = target: PIM3 (human) (UniProt Q86V86)
# [17] = target: CAMK1G (human) (UniProt Q96NX5)
# [18] = test system: KIT (human), P10721 [V559D/V654A]
# [19] = target: EIF2AK1 (human) (UniProt Q9BQI3)
# [20] = target: MAP2K2 (human) (UniProt P36507)
# [21] = target: PRKG1 (human) (UniProt Q13976)
# [22] = target: MARK2 (human) (UniProt Q7KZI7)
# [23] = target: IRAK1 (human) (UniProt P51617)
# [24] = target: EPHB1 (human) (UniProt P54762)
# [25] = target: RPS6KB1 (human) (UniProt P23443)
# Chain of RPS6KB1 (human) (P23443 whole entry, looked up): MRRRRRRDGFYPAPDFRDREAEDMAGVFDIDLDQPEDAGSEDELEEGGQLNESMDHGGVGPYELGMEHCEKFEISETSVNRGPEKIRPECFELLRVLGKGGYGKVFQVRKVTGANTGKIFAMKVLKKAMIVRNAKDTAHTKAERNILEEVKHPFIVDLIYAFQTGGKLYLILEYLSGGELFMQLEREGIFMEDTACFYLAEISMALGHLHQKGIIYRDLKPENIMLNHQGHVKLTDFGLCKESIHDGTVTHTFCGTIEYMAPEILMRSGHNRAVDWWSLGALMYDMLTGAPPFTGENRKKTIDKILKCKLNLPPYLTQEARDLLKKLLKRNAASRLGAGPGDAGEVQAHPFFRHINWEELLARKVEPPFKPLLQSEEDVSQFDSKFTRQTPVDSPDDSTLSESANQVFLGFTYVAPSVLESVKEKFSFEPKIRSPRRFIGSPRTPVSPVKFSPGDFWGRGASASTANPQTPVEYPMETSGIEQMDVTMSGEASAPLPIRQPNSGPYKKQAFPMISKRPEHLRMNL
# [26] = target: MYLK2 (human) (UniProt Q9H1R3)
# [27] = target: MARK3 (human) (UniProt P27448)
# Chain of MARK3 (human) (P27448 whole entry, looked up): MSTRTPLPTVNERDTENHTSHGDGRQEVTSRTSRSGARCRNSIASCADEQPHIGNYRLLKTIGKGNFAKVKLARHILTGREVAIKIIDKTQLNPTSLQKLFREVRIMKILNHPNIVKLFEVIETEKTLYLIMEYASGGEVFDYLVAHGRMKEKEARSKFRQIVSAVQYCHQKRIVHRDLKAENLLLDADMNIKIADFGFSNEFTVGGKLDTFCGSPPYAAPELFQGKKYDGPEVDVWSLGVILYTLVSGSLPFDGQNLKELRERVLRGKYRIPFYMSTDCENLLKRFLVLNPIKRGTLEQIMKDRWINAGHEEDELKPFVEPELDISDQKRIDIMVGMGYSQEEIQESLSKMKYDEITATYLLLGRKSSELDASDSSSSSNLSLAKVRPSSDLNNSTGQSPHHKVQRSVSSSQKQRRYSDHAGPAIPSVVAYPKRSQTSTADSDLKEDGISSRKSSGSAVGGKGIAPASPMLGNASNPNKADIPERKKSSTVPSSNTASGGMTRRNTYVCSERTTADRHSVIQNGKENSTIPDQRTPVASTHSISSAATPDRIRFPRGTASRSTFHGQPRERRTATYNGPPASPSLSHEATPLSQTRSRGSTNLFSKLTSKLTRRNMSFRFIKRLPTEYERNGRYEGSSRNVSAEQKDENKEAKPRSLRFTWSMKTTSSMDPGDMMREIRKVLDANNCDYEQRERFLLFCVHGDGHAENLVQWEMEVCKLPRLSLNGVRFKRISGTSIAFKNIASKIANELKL
# [28] = target: CLK4 (human) (UniProt Q9HAZ1)
# [29] = target: SRC (human) (UniProt P12931)
# [30] = target: EPHA5 (human) (UniProt P54756)
# [31] = test system: FGFR3 (human), P22607 [G697C]
# Chain of FGFR3 (human), P22607 [G697C] (P22607 whole entry G697C, looked up): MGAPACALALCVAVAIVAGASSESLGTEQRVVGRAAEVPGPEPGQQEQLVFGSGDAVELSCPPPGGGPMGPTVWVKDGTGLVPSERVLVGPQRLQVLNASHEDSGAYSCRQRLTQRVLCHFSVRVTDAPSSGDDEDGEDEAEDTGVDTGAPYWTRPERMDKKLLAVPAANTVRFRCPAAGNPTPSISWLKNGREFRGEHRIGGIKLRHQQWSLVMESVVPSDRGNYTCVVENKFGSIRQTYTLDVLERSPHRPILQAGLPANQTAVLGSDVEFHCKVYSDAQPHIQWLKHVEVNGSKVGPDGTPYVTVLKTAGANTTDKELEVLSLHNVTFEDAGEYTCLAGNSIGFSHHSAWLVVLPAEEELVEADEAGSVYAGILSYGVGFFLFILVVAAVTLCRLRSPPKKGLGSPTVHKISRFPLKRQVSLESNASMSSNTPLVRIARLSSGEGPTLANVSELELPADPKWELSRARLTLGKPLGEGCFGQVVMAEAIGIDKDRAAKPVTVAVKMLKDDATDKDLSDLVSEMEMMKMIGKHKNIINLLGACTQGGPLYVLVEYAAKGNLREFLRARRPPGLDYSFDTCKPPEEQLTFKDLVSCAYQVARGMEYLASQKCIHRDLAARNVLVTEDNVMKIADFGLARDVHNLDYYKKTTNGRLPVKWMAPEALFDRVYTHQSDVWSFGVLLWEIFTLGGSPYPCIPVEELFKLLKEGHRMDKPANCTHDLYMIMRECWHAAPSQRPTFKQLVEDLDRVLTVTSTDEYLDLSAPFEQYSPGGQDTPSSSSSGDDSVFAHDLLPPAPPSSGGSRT
# [32] = target: MST4 (human) (UniProt Q9P289)
# [33] = target: AURKA (human) (UniProt O14965)
# [34] = target: PLK1 (human) (UniProt P53350)
# [35] = target: CLK2 (human) (UniProt P49760)
# [36] = target: SRPK3 (human) (UniProt Q9UPE1)
# Chain of SRPK3 (human) (Q9UPE1 whole entry, looked up): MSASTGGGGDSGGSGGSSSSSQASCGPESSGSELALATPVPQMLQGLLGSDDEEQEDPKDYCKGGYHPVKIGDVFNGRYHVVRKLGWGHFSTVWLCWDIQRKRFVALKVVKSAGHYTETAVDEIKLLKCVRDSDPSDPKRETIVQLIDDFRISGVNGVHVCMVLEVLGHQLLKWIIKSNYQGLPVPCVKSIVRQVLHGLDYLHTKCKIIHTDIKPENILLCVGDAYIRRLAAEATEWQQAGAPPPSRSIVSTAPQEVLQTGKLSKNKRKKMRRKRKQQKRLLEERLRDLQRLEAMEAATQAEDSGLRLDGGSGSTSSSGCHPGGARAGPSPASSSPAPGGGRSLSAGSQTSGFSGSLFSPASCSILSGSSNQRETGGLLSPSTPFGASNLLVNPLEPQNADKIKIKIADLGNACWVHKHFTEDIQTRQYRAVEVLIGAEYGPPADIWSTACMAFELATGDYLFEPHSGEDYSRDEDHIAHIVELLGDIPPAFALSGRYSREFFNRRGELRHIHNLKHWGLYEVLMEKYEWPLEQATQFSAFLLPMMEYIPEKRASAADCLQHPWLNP
# [37] = target: CHEK2 (human) (UniProt O96017)
# [38] = target: RPS6KA1 KD1 (human) (UniProt Q15418)
# [39] = target: CDK9 (human) (UniProt P50750)
# Chain of CDK9 (human) (P50750 whole entry, looked up): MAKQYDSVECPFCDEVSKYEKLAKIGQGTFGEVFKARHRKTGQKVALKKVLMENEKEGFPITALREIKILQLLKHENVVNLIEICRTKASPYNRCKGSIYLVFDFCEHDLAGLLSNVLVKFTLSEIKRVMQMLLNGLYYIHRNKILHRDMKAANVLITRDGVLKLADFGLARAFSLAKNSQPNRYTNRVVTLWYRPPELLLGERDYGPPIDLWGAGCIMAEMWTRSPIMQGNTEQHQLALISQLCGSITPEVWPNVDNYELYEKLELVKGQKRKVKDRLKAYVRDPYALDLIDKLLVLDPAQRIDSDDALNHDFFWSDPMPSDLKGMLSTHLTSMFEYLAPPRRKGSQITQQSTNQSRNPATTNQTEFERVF
# [40] = target: CDK15 (human) (UniProt Q96Q40)
# Chain of CDK15 (human) (Q96Q40 whole entry, looked up): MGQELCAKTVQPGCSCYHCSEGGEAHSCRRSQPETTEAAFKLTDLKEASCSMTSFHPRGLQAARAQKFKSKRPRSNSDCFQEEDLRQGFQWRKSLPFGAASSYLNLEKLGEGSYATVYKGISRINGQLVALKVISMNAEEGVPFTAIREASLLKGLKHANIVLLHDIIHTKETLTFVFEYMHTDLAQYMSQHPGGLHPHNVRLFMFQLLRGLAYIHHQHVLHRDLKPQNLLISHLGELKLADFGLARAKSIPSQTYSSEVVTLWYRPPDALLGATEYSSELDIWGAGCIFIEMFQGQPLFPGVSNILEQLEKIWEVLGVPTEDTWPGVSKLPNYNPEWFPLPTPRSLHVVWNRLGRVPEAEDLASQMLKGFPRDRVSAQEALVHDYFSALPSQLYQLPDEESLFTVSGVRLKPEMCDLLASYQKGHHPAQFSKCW
# [41] = target: EPHA2 (human) (UniProt P29317)
# [42] = target: CAMK2D (human) (UniProt Q13557)
# [43] = target: TNIK (human) (UniProt Q9UKE5)
# Chain of TNIK (human) (Q9UKE5 whole entry, looked up): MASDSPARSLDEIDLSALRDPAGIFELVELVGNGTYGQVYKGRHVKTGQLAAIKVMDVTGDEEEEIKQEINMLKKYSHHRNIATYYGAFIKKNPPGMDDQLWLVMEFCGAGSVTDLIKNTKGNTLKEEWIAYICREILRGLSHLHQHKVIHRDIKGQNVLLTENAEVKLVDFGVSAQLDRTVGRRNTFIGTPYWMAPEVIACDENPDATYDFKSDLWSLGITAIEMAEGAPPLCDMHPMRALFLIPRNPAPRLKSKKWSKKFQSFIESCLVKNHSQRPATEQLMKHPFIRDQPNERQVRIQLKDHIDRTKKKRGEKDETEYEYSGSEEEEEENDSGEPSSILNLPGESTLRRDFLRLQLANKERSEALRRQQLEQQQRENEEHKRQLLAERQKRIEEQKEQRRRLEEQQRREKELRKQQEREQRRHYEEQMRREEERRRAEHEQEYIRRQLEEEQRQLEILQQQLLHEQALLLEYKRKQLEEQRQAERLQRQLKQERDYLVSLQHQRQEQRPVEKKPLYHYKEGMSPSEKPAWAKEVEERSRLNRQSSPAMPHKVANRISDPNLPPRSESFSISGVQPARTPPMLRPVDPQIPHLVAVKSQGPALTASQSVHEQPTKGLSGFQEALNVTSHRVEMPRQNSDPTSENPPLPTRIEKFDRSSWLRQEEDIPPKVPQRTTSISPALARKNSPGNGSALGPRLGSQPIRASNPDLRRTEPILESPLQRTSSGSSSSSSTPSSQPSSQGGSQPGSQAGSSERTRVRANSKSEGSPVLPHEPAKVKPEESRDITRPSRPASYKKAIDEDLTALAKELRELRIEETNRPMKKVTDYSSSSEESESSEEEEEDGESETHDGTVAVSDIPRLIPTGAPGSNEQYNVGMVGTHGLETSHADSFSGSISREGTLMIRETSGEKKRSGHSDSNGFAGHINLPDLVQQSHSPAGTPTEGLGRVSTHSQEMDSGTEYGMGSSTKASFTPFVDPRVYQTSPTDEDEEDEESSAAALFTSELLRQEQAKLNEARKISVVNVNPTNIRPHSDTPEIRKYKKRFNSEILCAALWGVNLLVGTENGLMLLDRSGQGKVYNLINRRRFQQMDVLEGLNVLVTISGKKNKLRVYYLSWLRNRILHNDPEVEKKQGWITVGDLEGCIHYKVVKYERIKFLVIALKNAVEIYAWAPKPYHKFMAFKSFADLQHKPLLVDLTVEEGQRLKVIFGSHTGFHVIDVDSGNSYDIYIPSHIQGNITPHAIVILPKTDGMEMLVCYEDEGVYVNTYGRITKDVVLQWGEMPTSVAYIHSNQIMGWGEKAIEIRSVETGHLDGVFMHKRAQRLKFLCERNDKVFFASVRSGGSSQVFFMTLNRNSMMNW
compound,measurement,setting,value
CN(C)C/C=C/C(=O)Nc1cccc(C(=O)Nc2ccc(Nc3nccc(-c4c(-c5ccccc5)nn5ccccc45)n3)cc2)c1,"kinase still bound, per cent of control",[1],100%
same,"kinase still bound, per cent of control",[2],100%
same,"kinase still bound, per cent of control",[3],89%
same,"kinase still bound, per cent of control",[4],100%
same,"kinase still bound, per cent of control",[5],0.6%
same,"kinase still bound, per cent of control",[6],21%
same,"kinase still bound, per cent of control",[7],74%
same,"kinase still bound, per cent of control",[8],58%
same,"kinase still bound, per cent of control",[9],3.8%
same,"kinase still bound, per cent of control",[10],23%
same,"kinase still bound, per cent of control",[11],99%
same,"kinase still bound, per cent of control",[12],81%
same,"kinase still bound, per cent of control",[13],100%
same,"kinase still bound, per cent of control",[14],90%
same,"kinase still bound, per cent of control",[15],77%
same,"kinase still bound, per cent of control",[16],94%
same,"kinase still bound, per cent of control",[17],94%
same,"kinase still bound, per cent of control",[18],49%
same,"kinase still bound, per cent of control",[19],76%
same,"kinase still bound, per cent of control",[20],88%
same,"kinase still bound, per cent of control",[21],90%
same,"kinase still bound, per cent of control",[22],98%
same,"kinase still bound, per cent of control",[23],2%
same,"kinase still bound, per cent of control",[24],84%
same,"kinase still bound, per cent of control",[25],83%
same,"kinase still bound, per cent of control",[26],100%
same,"kinase still bound, per cent of control",[27],75%
same,"kinase still bound, per cent of control",[28],100%
same,"kinase still bound, per cent of control",[29],18%
same,"kinase still bound, per cent of control",[30],98%
same,"kinase still bound, per cent of control",[31],93%
same,"kinase still bound, per cent of control",[32],85%
same,"kinase still bound, per cent of control",[33],28%
same,"kinase still bound, per cent of control",[34],100%
same,"kinase still bound, per cent of control",[35],90%
same,"kinase still bound, per cent of control",[36],100%
same,"kinase still bound, per cent of control",[37],100%
same,"kinase still bound, per cent of control",[38],100%
same,"kinase still bound, per cent of control",[39],100%
same,"kinase still bound, per cent of control",[40],100%
same,"kinase still bound, per cent of control",[41],76%
same,"kinase still bound, per cent of control",[42],100%
same,"kinase still bound, per cent of control",[43],27%
Cc1cc(NC(=O)c2cccc(NC(=O)/C=C/CN(C)C)c2)ccc1Nc1nccc(-c2cccnc2)n1,"kinase still bound, per cent of control",[1],100%
same,"kinase still bound, per cent of control",[2],100%
same,"kinase still bound, per cent of control",[3],70%
same,"kinase still bound, per cent of control",[4],100%
same,"kinase still bound, per cent of control",[5],0.95%
same,"kinase still bound, per cent of control",[6],100%
same,"kinase still bound, per cent of control",[7],57%
same,"kinase still bound, per cent of control",[8],77%
same,"kinase still bound, per cent of control",[9],100%
same,"kinase still bound, per cent of control",[10],67%
same,"kinase still bound, per cent of control",[11],95%
same,"kinase still bound, per cent of control",[12],85%
same,"kinase still bound, per cent of control",[13],100%
same,"kinase still bound, per cent of control",[14],67%
same,"kinase still bound, per cent of control",[15],88%
same,"kinase still bound, per cent of control",[16],56%
same,"kinase still bound, per cent of control",[17],100%
same,"kinase still bound, per cent of control",[18],81%
same,"kinase still bound, per cent of control",[19],100%
same,"kinase still bound, per cent of control",[20],91%
same,"kinase still bound, per cent of control",[21],72%
same,"kinase still bound, per cent of control",[22],77%
same,"kinase still bound, per cent of control",[23],13%
same,"kinase still bound, per cent of control",[24],100%
same,"kinase still bound, per cent of control",[25],100%
same,"kinase still bound, per cent of control",[26],13%
same,"kinase still bound, per cent of control",[27],100%
same,"kinase still bound, per cent of control",[28],93%
same,"kinase still bound, per cent of control",[29],87%
same,"kinase still bound, per cent of control",[30],100%
same,"kinase still bound, per cent of control",[31],100%
same,"kinase still bound, per cent of control",[32],82%
same,"kinase still bound, per cent of control",[33],100%
same,"kinase still bound, per cent of control",[34],100%
same,"kinase still bound, per cent of control",[35],95%
same,"kinase still bound, per cent of control",[36],70%
same,"kinase still bound, per cent of control",[37],95%
same,"kinase still bound, per cent of control",[38],99%
same,"kinase still bound, per cent of control",[39],100%
same,"kinase still bound, per cent of control",[40],100%
same,"kinase still bound, per cent of control",[41],100%
same,"kinase still bound, per cent of control",[42],100%
same,"kinase still bound, per cent of control",[43],56%
